In patent publication US20240315993A1, “ANTIPARASITIC COMPOUNDS” (Intervet Inc., priority 2021, published 2024):
Read-outs that look alike come from different tables or passages of the source.

Experiments:
[1] = test system: Copepodids (juvenile sea lice stage of Lepeophtheirus salmonis); assay: Juvenile sea lice contact assay; conditions: Lepeophtheirus salmonis, read-out: Sea lice inhibition (% of dead+damaged copepodids); for inhibition at 0.01 µM: 10 nM in seawater
Method: Copepodids (juvenile sea lice stage of Lepeophtheirus salmonis) were exposed to seawater spiked with declining concentrations of a test compound (dissolved in a DMSO sea-water mixture). Sea lice inhibition (% of dead+damaged copepodids) was assessed after approximately 24 hours of continuous exposure. The vitality of used parasites was confirmed in a negative (solvent) control group.

[2] = test system: Mobile stages of sea lice (pre-adults, adults of Lepeophtheirus salmonis); assay: Adult sea lice contact assay; conditions: read-out: EC50 (sea lice inhibition, dead+damaged)
Method: Mobile stages of sea lice (i.e., pre-adults, adults of Lepeophtheirus salmonis) were exposed to seawater spiked with declining concentrations of a test compound (dissolved in a PEG sea-water mixture). Sea lice inhibition (% of dead+damaged sea lice) was assessed after approximately 1 and 24 hours of continuous exposure in comparison to a negative (solvent) control group.

[3] = test system: larvae of Rhipicephalus microplus isolates with known resistance profiles; assay: Tick larvae resistance assay (larval immersion test, LIT)
Method: A tick resistance assay (i.e., larval immersion test, LIT) was carried out using larvae of several Rhipicephalus microplus isolates with known resistance profiles (i.e.: fully susceptible; resistant to dieldrin, coumaphos, DDT, chlorpyriphos, flumethrin, cypermethrin, amitraz, fluazuron).
Tick larvae (Rhipicephalus microplus) were immersed for approximately 3 minutes in test compound solution. Tick mortality was assessed approximately 24 hours after contact exposure. The vitality of used parasites was confirmed in negative control groups (i.e., an untreated control and a solvent control).

[4] = test system: juvenile soft ticks (Ornithodoros moubata); assay: Guinea pig - efficacy against argaside tick; type: in vivo; conditions: for duration of efficacy, subcutaneous compared with oral administration: ticks and bed bugs
Summary of the method: (§1)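 Guinea pigs given 5 mg/kg test compound orally (gavage) or s.c. in 10% DMF/emulsifier plus 90% water for injection, with local co-infestations of Ornithodoros moubata juveniles and Cimex lectularius at several post-treatment times. Engorged parasites scored dead/damaged about 24 h after collection; % inhibition versus pretreatment baseline by modified Schneider-Orelli formula.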

[5] = test system: bed bugs (Cimex lectularius); assay: Guinea pig - efficacy against bed bug; type: in vivo
Summary of the method: as §1

[6] = test system: Rhipicephalus microplus; assay: Cattle - efficacy against one-host tick; type: in vivo; conditions: 1 mg/kg topical (Compound 4: spray solution; others: DMA 92%/DEET 8% pour-on)
Method: Cattle were infested (whole body) with up to 3000 Rhipicephalus microplus larvae two or three times per week before and after the treatment day (Day 0). Cattle of treatment groups were treated subcutaneously or topically (spray or pour-on) at a dose of 1 mg/kg bodyweight of a test compound. As subcutaneous formulation either 2-pyrrolidon 50%/Tween 80 50% or NMP 60%/PEG300 40% was used. As topical formulation either a spray solution (DMF/Emulsifier 2%/tap water 98%) (Compound 4) or a DMA 92%/DEET 8% pour-on solution (all other compounds) or a pour-on solution containing Imwitor 988 (20%)+Miglyol 840 (QS) (Compound 453 and Compound 466) or a pour-on solution containing Miglyol 840 (QS) (Compound 453) was used. Cattle of the negative control group received only the formulation excipients of the respective administration route.
Fully engorged female ticks dropping from cattle were collected daily after treatment and counted in treatment and control groups. Efficacy was expressed using the standard ADEQ analysis method (ADEQ calculation in accordance with WAAVP guidelines for evaluating the efficacy of acaricides against ticks on ruminants; Veterinary parasitology 136 (2006) 29-43). Compounds with efficacy ≥80 percent were found active/effective. Onset of efficacy means the first Day with efficacy ≥80 percent. Duration of efficacy means the last Day with efficacy ≥80 percent.

[7] = test system: Dermacenter variabilis; assay: Cattle - efficacy against multi-host ticks (Dermacenter variabilis); type: in vivo
Method: (§2) Cattle were treated subcutaneously or topically (pour-on) at a dose of 5 mg/kg bodyweight of a test compound (Day 0). As subcutaneous formulation NMP 60%/PEG300 40% was used, and as pour-on formulation DMA 92%/DEET 8% was used. Cattle of the negative control group received only the formulation excipients of both formulations (SC, pour-on).
(§3) Cattle were locally infested with 30 to 40 unfed adult ticks each of Rhipicephalus appendiculatus and Dermacenter variabilis (for both species sex ratio 1:1), by placing the ticks in an ear sleeve (R. appendiculatus) or a stockinet patch attached to the body side (D. variabilis) once before treatment, and at different time points after treatment. Free (i.e., non-attached ticks) were removed from ear sleeves/stockinet patches two days after each infestation and were excluded from the efficacy calculation.
(§4) Compounds with efficacy ≥80 percent were found active.

[8] = test system: Rhipicephalus appendiculatus; assay: Cattle - efficacy against multi-host ticks (Rhipicephalus appendiculatus); type: in vivo
Method: as §2, §3, §4

[9] = test system: Lepeophtheirus salmonis; assay: Salmon - in vivo efficacy against sea lice using gavage administration; conditions: 5 mg/kg once by gavage, day -3 infestation, counted around day 28
Method: Salmon (Salmo solar) were treated once orally by gavage at a dose of 5 mg/kg bodyweight per fish (Day 0). As formulation DMSO 5%/fish oil 95% was used. Salmon of the negative control group received only the excipients of the formulation.
The fish were infested with Lepeophtheirus salmonis copepodids twice before treatment (i.e., around day −28 and day −3) and once after treatment (i.e., day 17).
Around day 28 (end of animal phase), fish were euthanized, and lice on each fish were classified ((pre-)adult or juvenile stage) and counted. […] Efficacy is expressed as a % reduction of sea lice in treated groups versus a control group, using the Abbott's formula.

[10] = test system: Lepeophtheirus salmonis; assay: as above; conditions: po, 168 h, read-out: therapeutic efficacy against (pre-)adult sea lice (% reduction vs control), salmon, 5 mg/kg once by gavage, day -28 infestation, counted day 7
[11] = 5 mg/kg subcutaneous, after 7 days
[12] = 5 mg/kg subcutaneous, after 10 days
[13] = 5 mg/kg subcutaneous, after 14 days
[14] = 5 mg/kg subcutaneous, after 17 days
[15] = 5 mg/kg subcutaneous, re-infested after 7 days
[16] = 5 mg/kg subcutaneous, re-infested after 14 days
[17] = 5 mg/kg subcutaneous, re-infested after 21 days
[18] = 5 mg/kg subcutaneous, therapeutic, Day 2
[19] = 5 mg/kg topical pour-on, re-infested after 7 days
[20] = 5 mg/kg topical pour-on, re-infested after 14 days
[21] = 5 mg/kg topical pour-on, re-infested after 21 days
[22] = 5 mg/kg topical pour-on, re-infested after 28 days
[23] = pre-adults/adults, assessed after ~1 and 24 h
[24] = 5 mg/kg, at least until Day 10, both administration routes (oral, subcutaneous)

## O=C(Nc1ccc(F)cc1)c1cc(NC(=O)[C@H]2[C@H](c3cc(Cl)cc(Cl)c3)C2(Cl)Cl)ccc1F [Compound 446]
[1]; 24 h
  inhibition at 0.001 µM: 100%
[2]
  EC50: ≤ 10 nM
[3]; isolate resistant to Coumaphos, Flumethrin, Cypermethrin
  LC50: 0.353 ppm
[3]; isolate resistant to Coumaphos, Flumethrin, Cypermethrin, Amitraz
  LC50: 0.48 ppm
[3]; isolate resistant to DDT, Dieldrin, Coumaphos
  LC50: 0.31 ppm
[3]; isolate resistant to DDT, Dieldrin, Coumaphos, Chlorpyriphos
  LC50: 0.463 ppm
[3]; isolate resistant to Dieldrin, Coumaphos, Fluazuron
  LC50: 0.322 ppm
[3]; isolate: Fully susceptible
  LC50: 0.344 ppm
[4]; 5 mg/kg oral, Day 0
  activity against tick nymphs (≥80% inhibition, killed+damaged): immediate activity
[4]; 5 mg/kg subcutaneous, Day 0
  activity against tick nymphs (≥80% inhibition, killed+damaged): immediate activity
[4]; [11]
  activity against tick nymphs (≥80% inhibition, killed+damaged): activity
[4]; [12]
  activity against tick nymphs (≥80% inhibition, killed+damaged): activity
[4]; [13]
  activity against tick nymphs (≥80% inhibition, killed+damaged): activity
[4]; [14]
  activity against tick nymphs (≥80% inhibition, killed+damaged): activity
[4]; 5 mg/kg
  duration of efficacy, subcutaneous compared with oral administration: longer duration of efficacy
[5]; 5 mg/kg oral, Day 0
  activity against bed bugs (≥80% inhibition, killed+damaged): immediate activity
[5]; 5 mg/kg oral, after 7 days
  activity against bed bugs (≥80% inhibition, killed+damaged): activity
[5]; 5 mg/kg subcutaneous, Day 0
  activity against bed bugs (≥80% inhibition, killed+damaged): immediate activity
[5]; [11]
  activity against bed bugs (≥80% inhibition, killed+damaged): activity
[5]; [12]
  activity against bed bugs (≥80% inhibition, killed+damaged): activity
[5]; [13]
  activity against bed bugs (≥80% inhibition, killed+damaged): activity
[5]; [14]
  activity against bed bugs (≥80% inhibition, killed+damaged): activity
[5]; 5 mg/kg subcutaneous, after 21 days
  activity against bed bugs (≥80% inhibition, killed+damaged): activity
[5]; 5 mg/kg subcutaneous, after 24 days
  activity against bed bugs (≥80% inhibition, killed+damaged): activity
[6]
  duration of efficacy (last Day with efficacy ≥80 percent): 47 days
  onset of efficacy (first Day with efficacy ≥80 percent): 3 days
[7]; [15]
  efficacy ≥80 percent against Dermacenter variabilis: prophylactic efficacy
[7]; [16]
  efficacy ≥80 percent against Dermacenter variabilis: prophylactic efficacy
[7]; [17]
  efficacy ≥80 percent against Dermacenter variabilis: prophylactic efficacy
[7]; 5 mg/kg subcutaneous, re-infested after 28 days
  efficacy ≥80 percent against Dermacenter variabilis: prophylactic efficacy
[7]; [18]
  efficacy ≥80 percent against Dermacenter variabilis: therapeutic efficacy
[7]; [19]
  efficacy ≥80 percent against Dermacenter variabilis: prophylactic efficacy
[7]; [20]
  efficacy ≥80 percent against Dermacenter variabilis: prophylactic efficacy
[7]; [21]
  efficacy ≥80 percent against Dermacenter variabilis: prophylactic efficacy
[7]; [22]
  efficacy ≥80 percent against Dermacenter variabilis: prophylactic efficacy
[7]; 5 mg/kg topical pour-on, re-infested after 35 days
  efficacy ≥80 percent against Dermacenter variabilis: prophylactic efficacy
[7]; 5 mg/kg topical pour-on, therapeutic, Day 2
  efficacy ≥80 percent against Dermacenter variabilis: therapeutic efficacy
[8]; [15]
  efficacy ≥80 percent against Rhipicephalus appendiculatus: prophylactic efficacy
[8]; [16]
  efficacy ≥80 percent against Rhipicephalus appendiculatus: prophylactic efficacy
[8]; [17]
  efficacy ≥80 percent against Rhipicephalus appendiculatus: prophylactic efficacy
[8]; [18]
  efficacy ≥80 percent against Rhipicephalus appendiculatus: therapeutic efficacy
[8]; [19]
  efficacy ≥80 percent against Rhipicephalus appendiculatus: prophylactic efficacy
[8]; [20]
  efficacy ≥80 percent against Rhipicephalus appendiculatus: prophylactic efficacy
[8]; [21]
  efficacy ≥80 percent against Rhipicephalus appendiculatus: prophylactic efficacy
[8]; [22]
  efficacy ≥80 percent against Rhipicephalus appendiculatus: prophylactic efficacy

## O=C(Nc1c(F)cc(F)cc1F)c1cc(NC(=O)[C@H]2[C@H](c3cc(Cl)cc(Cl)c3)C2(Cl)Cl)ccc1Cl [Compound 449]
[1]; ~24 h
  inhibition at 0.01 µM: 100%
[2]; [23]
  EC50: 10 to 25 nM
[4]; 5 mg/kg oral, Day 0
  activity against tick nymphs (≥80% inhibition, killed+damaged): immediate activity
[4]; 5 mg/kg subcutaneous, Day 0
  activity against tick nymphs (≥80% inhibition, killed+damaged): immediate activity
[4]; [11]
  activity against tick nymphs (≥80% inhibition, killed+damaged): activity
[5]; 5 mg/kg oral, Day 0
  activity against bed bugs (≥80% inhibition, killed+damaged): immediate activity
[5]; 5 mg/kg subcutaneous, Day 0
  activity against bed bugs (≥80% inhibition, killed+damaged): immediate activity
[9]
  therapeutic efficacy against juvenile sea lice (% reduction vs control): 80%
[10]
  inhibition in vivo at 5 mg/kg: 80%

## O=C(Nc1ccc(F)cc1F)c1cc(NC(=O)[C@H]2[C@H](c3cc(F)c(F)c(F)c3)C2(Cl)Cl)ccc1Cl [Compound 451]
[1]; 1 nM in seawater, ~24 h
  inhibition at 0.001 µM: 100%
[2]; [23]
  EC50: ≤ 10 nM
[4]; 5 mg/kg oral, Day 0
  activity against tick nymphs (≥80% inhibition, killed+damaged): immediate activity
[4]; 5 mg/kg oral, after 7 days
  activity against tick nymphs (≥80% inhibition, killed+damaged): activity
[4]; 5 mg/kg oral, after 10 days
  activity against tick nymphs (≥80% inhibition, killed+damaged): activity
[4]; 5 mg/kg subcutaneous, Day 0
  activity against tick nymphs (≥80% inhibition, killed+damaged): immediate activity
[4]; [11]
  activity against tick nymphs (≥80% inhibition, killed+damaged): activity
[4]; [12]
  activity against tick nymphs (≥80% inhibition, killed+damaged): activity
[4]; [24]
  effective to control ticks: 100%
[5]; 5 mg/kg oral, Day 0
  activity against bed bugs (≥80% inhibition, killed+damaged): immediate activity
[5]; 5 mg/kg oral, after 7 days
  activity against bed bugs (≥80% inhibition, killed+damaged): activity
[5]; 5 mg/kg oral, after 10 days
  activity against bed bugs (≥80% inhibition, killed+damaged): activity
[5]; 5 mg/kg subcutaneous, Day 0
  activity against bed bugs (≥80% inhibition, killed+damaged): immediate activity
[5]; [11]
  activity against bed bugs (≥80% inhibition, killed+damaged): activity
[5]; [12]
  activity against bed bugs (≥80% inhibition, killed+damaged): activity
[5]; [24]
  effective to control bed bugs: 100%
[10]
  inhibition in vivo at 5 mg/kg: 80%

## O=C(Nc1cnc(F)cc1F)c1cc(NC(=O)[C@H]2[C@H](c3cc(Cl)cc(Cl)c3)C2(Cl)Cl)ccc1Cl [Compound 455]
[1]; ~24 h
  inhibition at 0.01 µM: 100%
[2]; [23]
  EC50: ≤ 10 nM
[4]; 5 mg/kg oral, Day 0
  activity against tick nymphs (≥80% inhibition, killed+damaged): immediate activity
[4]; 5 mg/kg subcutaneous, Day 0
  activity against tick nymphs (≥80% inhibition, killed+damaged): immediate activity
[4]; 5 mg/kg
  duration of efficacy, subcutaneous compared with oral administration: longer duration of efficacy
[5]; 5 mg/kg oral, Day 0
  activity against bed bugs (≥80% inhibition, killed+damaged): immediate activity
[5]; 5 mg/kg subcutaneous, Day 0
  activity against bed bugs (≥80% inhibition, killed+damaged): immediate activity
[9]
  therapeutic efficacy against juvenile sea lice (% reduction vs control): 100%
[10]
  inhibition in vivo at 5 mg/kg: 100%
